Measured values from US9675556B2, “Biodegradable stealth polymeric particles fabricated using the macromonomer approach by free radical dispersion polymerization” (Howard University, priority 2010, dated 2017).

Columns and labels:
Experiment in all cases: CellTiter-Glo luminescent cell viability assay (in vitro cytotoxicity)
Format in all cases: cell-based
Settings in all cases: […] to 120 nM paclitaxel, 48, 72 and 96 hours
MCF-7 cells = test system: MCF-7 cells
Protocol: (§1) The concentrations tested range from 2.5 nM to 120 nM. The experiment was carried out as follows: Cultured cells (MCF-7, SK-OV 3, and MDA-MB-231) were seeded in 96-well plates at a seeding density of 6000 cells/well/0.1 mL medium and allowed to attach for 24 hours. […] To allow direct comparison, the amount of paclitaxel-loaded nanoparticles containing the same amount of paclitaxel as the paclitaxel in solution was used. Control cells were treated with medium only, medium with 0.05% DMSO, and medium containing blank nanoparticles at the highest concentration tested.
(§2) Cell viability was assessed at 48-, 72- and 96-hours post treatment respectively. Briefly, at the predetermined time intervals the treatment was washed off and fresh medium added. An amount of the CellTiter®-Glo reagent equal to the amount of medium was added. The plate was mixed by shaking on an orbital shaker for 2 minutes to induce cell lysis and luminescence was measured after 10 minutes using the FLUOstar OPTIMA plate reader (BMG LABTECH). In this assay, the number of viable cells in culture is determined by quantification of the ATP present which is an index of the presence of metabolically active cells (CellTiter®-Glo Luminescent Cell Viability Assay Technical Bulletin, TB 288; Promega). Results are presented as percent viability normalized to controls and represent the mean±S.D. of 4 replicates per concentration tested, as shown in FIG. 9. The results were analyzed by using Student's t-test using the SPSS® statistical software. Differences were considered significant at p<0.05.

SK-OV-3 cells = test system: SK-OV-3 cells
Protocol: as §1, §2

MDA-MB-231 cells = test system: MDA-MB-231 cells
Protocol: as §1, §2

Measured: cell growth inhibition (cell viability)

CC(=O)O[C@H]1C(=O)[C@@]2(C)[C@H]([C@H](OC(=O)c3ccccc3)[C@]3(O)C[C@H](OC(=O)[C@H](O)[C@@H](NC(=O)c4ccccc4)c4ccccc4)C(C)=C1C3(C)C)[C@]1(OC(C)=O)CO[C@@H]1C[C@@H]2O [paclitaxel solution, paclitaxel]
inhibited cell growth: all assays above
